For one series, the system named is herpes simplex virus. The series is described as follows: inhibition of herpes simplex virus multiplication in tissue culture (plaque formation technic of Rapp). In kind it is cell-based. As to conditions: for IC50: read-out: Concentration required to exert 50% inhibition of herpes-induced plaque formation; for IC100: read-out: Concentration required to exert 100% inhibition of herpes-induced plaque formation.

The nature of another series: light sensitivity. In kind it is physicochemical.
Series [1] relates to influenza A2 virus, Hong Kong strain. Briefly: microbe, parasite or virus in culture. Type of series: cell-based.
Another series concerns influenza A2 /Hong Kong. The series is described as follows: suppression of influenza A2/Hong Kong disease in mice (lung weight). To be noted: 40 mg/Kg orally from 24 h post-infection; 8 days; from lung weights; 50% of drug blocked at 1,2- with acetone. In kind it is in vivo.
A further series relates to influenza A/PR/8. The series is described as follows: prevention of death in mice with lethal influenza A/PR/8 infection. As to conditions: for % of Population Protected / % Mortality: 8 days; for % Mortality: control 95. Type of series: in vivo. How it is done: The above medication was also examined for its capacity to prevent death in mice ill with a lethal influenza A/PR/8 infection. The drug was given subcutaneously at 3 dose levels, once 90 minutes before infection.

The mark [2] stands for this setting: 10 mg/Kg s.c. once 90 min before infection.
[3] abbreviates: 40 mg/Kg s.c. once 90 min before infection.
Setting [4] is: 160 mg/Kg s.c. once 90 min before infection.

This note sets out measurements from patent USRE30354E, “Novel ethereally monosubstituted monosaccharides” (Strategic Medical Research Corp., priority 1978, dated 1980).

≈ marks a conversion by molar mass, not a printed value.

On to `NCCCO[C@H]1[C@H](O)[C@@H](CO)OC(O)[C@@H]1O` (stereo partly drawn) [3-O-3'-n-propylamino-D-glucose, 3-O-3'-(n-propylamino)-D-glucopyranose], for which, in the series on herpes simplex virus, the IC50 came to 3 µg/mL (≈ 12.6 µM) and the IC100 was > 20 µg/mL.
Regarding `CC(CN(C)C)O[C@H]1[C@H](O)[C@@H](CO)OC(O)[C@@H]1O` (stereo partly drawn) [3-O-2'-(N',N'-dimethylaminopropyl)-D-glucopyranose], in the series with herpes simplex virus (herpes simplex, tissue culture), the “Concentration required to exert 50% inhibition of herpes-induced plaque formation” value amounted to 3 µg/mL and the “Concentration required to exert 100% inhibition of herpes-induced plaque formation” value was < 20 µg/mL.
`CC1(C)OCC(C2OC3OC(C)(C)OC3C2OCCC#N)O1` [di-O-isopropylidene-3-O-3'-propionitrile-D-glucofuranose]: the light sensitivity entry in “light sensitivity” is reported as “light sensitive”.
Turning to `CN(C)CCCO[C@H]1[C@H](O)[C@@H](CO)OC(O)[C@@H]1O` (stereo partly drawn) [3-O-3'-(N',N'-dimethylamino-n-propyl)-D-glucopyranose], the “potency of virus-inhibiting effect” value in series [1] is reported as “the most potent effect”. Further, in the series on influenza A2 /Hong Kong, the “% Disease Suppression” value is recorded as 82%. In the series with herpes simplex virus, the IC50 came out at 0.3 µg/mL (≈ 1.13 µM). In addition, the IC100 with herpes simplex virus was 1 µg/mL. For the same compound, in the series on herpes simplex virus (relative to other derivatives of Table 2), the “anti-herpes potency” value is reported as “the most potent derivative”. Also, the figures for the “% of Population Protected” value in the series on influenza A/PR/8 (setting [2]), in the series with influenza A/PR/8 (setting [3]) and in the series on influenza A/PR/8 (setting [4]) were 14%, 23% and 50%, respectively. In addition, the entries for the “% Mortality” value in the series with influenza A/PR/8 (setting [2]), in the series with influenza A/PR/8 (setting [3]) and in the series on influenza A/PR/8 (setting [4]) were 81%, 72% and 45%, respectively. Moreover, the “protection against death” value in the series with influenza A/PR/8 (3 s.c. dose levels, once 90 minutes before infection) is “significant dose-dependent protection against death”.
Regarding `CC(CN(C)C)O[C@H]1O[C@H](CO)[C@@H](O)[C@H](O)[C@H]1O` (stereo partly drawn) [α-N,N-dimethylaminoisopropyl glucoside, α-N,N-dimethylaminoisopropyl-D-glucoside], in series [1] (3 μg/ml, 100 TCD50 inoculum, BHK cells, 4.0 is maximum, read-out: Log Decrease in Infectivity of Virus Inoculum), the log reduction at 3 µg/mL came out at 1.5. For the same compound, the log reduction at 10 µg/mL in series [1] (10 μg/ml, 100 TCD50 inoculum, BHK cells, 4.0 is maximum (complete suppression), read-out: Log Decrease in Infectivity of Virus Inoculum) amounted to 2.5. Also, in the series with herpes simplex virus, the IC50 stood at 10 µg/mL (≈ 37.7 µM) and the IC100 was > 50 µg/mL.
In the case of `CC(CO[C@H]1[C@H](O)[C@@H](CO)OC(O)[C@@H]1O)CN(C)C` (stereo partly drawn) [3-O-3'-(2',N',N'-trimethylamino-n-propyl)-D-glucopyranose], in the series on herpes simplex virus, the IC50 turned out to be 2 µg/mL (≈ 7.16 µM) and the IC100 was 7 µg/mL.
For `CN(C)CCCOC[C@H]1OC(O)[C@H](O)[C@@H](O)[C@H]1O` (stereo partly drawn) [6-O-3'-(N',N'-dimethylamino-n-propyl)-D-galactopyranose], in that order: 2 µg/mL (≈ 7.54 µM) and > 10 µg/mL.
Regarding `CN1CCC(O[C@H]2[C@H](O)[C@@H](CO)OC(O)[C@@H]2O)CC1` (stereo partly drawn) [3-O-4'-(N-methylpiperidyl)-D-glucose, 3-O-4'-(N-methylpiperidyl)-D-glucopyranose], in the series on herpes simplex virus, the IC50 is 0.7 µg/mL (≈ 2.52 µM) and the IC100 came out at 6 µg/mL.
Take 3-O-D-glucopropionitrile: the light sensitivity result in “light sensitivity” was “photosensitive”.
In the case of `CCN(CC)CCO[C@H]1[C@H](O)[C@@H](CO)OC(O)[C@@H]1O` (stereo partly drawn) [3-O-2'-(N',N'-diethylaminoethyl)-D-glucopyranose], in the series with herpes simplex virus, the IC50 was determined as 2 µg/mL (≈ 7.16 µM) and the IC100 is 20 µg/mL.
For `CCN(CC)CCOC1C(C2COC(C)(C)O2)OC2OC(C)(C)OC21` [1,2:5,6-di-O-isopropylidene-3-O-2'-(N',N'-diethylaminoethyl)-D-glucofuranose], in that order: 6 µg/mL (≈ 16.7 µM) and 30 µg/mL.
